# Results from patent US6352958B1, “Cycloimido-substituted benzofused heterocyclic herbicides” (FMC Corporation, priority 1997, dated 2002).
# Tests used:
# Type in all cases: in vivo
# [1] = tested on: soybean (Glycine max var. Winchester); experiment: Postemergence herbicidal activity, soybean; conditions: rate of application 0.3 Kg/Ha, rated after 12-17 days
# [2] = tested on: velvetleaf (Abutilon theophrasti); experiment: Postemergence herbicidal activity, velvetleaf; conditions: rate of application 0.3 Kg/Ha, rated after 12-17 days
# [3] = tested on: Johnsongrass (Sorghum halepense); experiment: Preemergence herbicidal activity, johnsongrass; conditions: Rate of Application 0.3 Kg/Ha, examined after 12-17 days
# [4] = tested on: common cocklebur (Xanthium strumarium L.); experiment: Postemergence herbicidal activity, cocklebur; conditions: rate of application 0.3 Kg/Ha, rated after 12-17 days
# [5] = tested on: wheat (Triticum aestivum var. Lew); experiment: Preemergence herbicidal activity, wheat; conditions: Rate of Application 0.3 Kg/Ha, examined after 12-17 days
# [6] = tested on: Johnsongrass (Sorghum halepense); experiment: Postemergence herbicidal activity, johnsongrass; conditions: rate of application 0.3 Kg/Ha, rated after 12-17 days
# [7] = tested on: blackgrass (Aloepecurus myosuroides); experiment: Preemergence herbicidal activity, blackgrass; conditions: Rate of Application 0.3 Kg/Ha, examined after 12-17 days
# [8] = tested on: field corn (Zea mays var. Pioneer 3732); experiment: Postemergence herbicidal activity, corn; conditions: rate of application 0.3 Kg/Ha, rated after 12-17 days
# [9] = tested on: field corn (Zea mays var. Pioneer 3732); experiment: Preemergence herbicidal activity, corn; conditions: Rate of Application 0.3 Kg/Ha, examined after 12-17 days
# [10] = tested on: common cocklebur (Xanthium strumarium L.); experiment: Preemergence herbicidal activity, cocklebur; conditions: Rate of Application 0.3 Kg/Ha, examined after 12-17 days
# [11] = tested on: soybean (Glycine max var. Winchester); experiment: Preemergence herbicidal activity, soybean; conditions: Rate of Application 0.3 Kg/Ha, examined after 12-17 days
# [12] = tested on: wheat (Triticum aestivum var. Lew); experiment: Postemergence herbicidal activity, wheat; conditions: rate of application 0.3 Kg/Ha, rated after 12-17 days
# [13] = tested on: morningglory (Ipomea lacunosa or Ipomea hederacea); experiment: Preemergence herbicidal activity, morningglory; conditions: Rate of Application 0.3 Kg/Ha, examined after 12-17 days
# [14] = tested on: morningglory (Ipomea lacunosa or Ipomea hederacea); experiment: Postemergence herbicidal activity, morningglory; conditions: rate of application 0.3 Kg/Ha, rated after 12-17 days
# [15] = tested on: green foxtail (Setaria viridis); experiment: Preemergence herbicidal activity, green foxtail; conditions: Rate of Application 0.3 Kg/Ha, examined after 12-17 days
# [16] = tested on: green foxtail (Setaria viridis); experiment: Postemergence herbicidal activity, green foxtail; conditions: rate of application 0.3 Kg/Ha, rated after 12-17 days
# [17] = tested on: blackgrass (Aloepecurus myosuroides); experiment: Postemergence herbicidal activity, blackgrass; conditions: rate of application 0.3 Kg/Ha, rated after 12-17 days
# [18] = tested on: common chickweed (Stellaria media); experiment: Preemergence herbicidal activity, chickweed; conditions: Rate of Application 0.3 Kg/Ha, examined after 12-17 days
# [19] = tested on: common chickweed (Stellaria media); experiment: Postemergence herbicidal activity, chickweed; conditions: rate of application 0.3 Kg/Ha, rated after 12-17 days
# [20] = tested on: velvetleaf (Abutilon theophrasti); experiment: Preemergence herbicidal activity, velvetleaf; conditions: Rate of Application 0.3 Kg/Ha, examined after 12-17 days
Compound,Postemergence herbicidal activity (% control) SOY [1] [%],Postemergence herbicidal activity (% control) ABUTH [2] [%],PREEMERGENCE HERBICIDAL ACTIVITY (% CONTROL) SORHA [3] [%],Postemergence herbicidal activity (% control) XANPE [4] [%],PREEMERGENCE HERBICIDAL ACTIVITY (% CONTROL) WHT [5] [%],Postemergence herbicidal activity (% control) SORHA [6] [%],PREEMERGENCE HERBICIDAL ACTIVITY (% CONTROL) ALOMY [7] [%],Postemergence herbicidal activity (% control) CRN [8] [%],PREEMERGENCE HERBICIDAL ACTIVITY (% CONTROL) CRN [9] [%],PREEMERGENCE HERBICIDAL ACTIVITY (% CONTROL) XANPE [10] [%],PREEMERGENCE HERBICIDAL ACTIVITY (% CONTROL) SOY [11] [%],Postemergence herbicidal activity (% control) WHT [12] [%],PREEMERGENCE HERBICIDAL ACTIVITY (% CONTROL) IPOSS [13] [%],Postemergence herbicidal activity (% control) IPOSS [14] [%],PREEMERGENCE HERBICIDAL ACTIVITY (% CONTROL) SETVI [15] [%],Postemergence herbicidal activity (% control) SETVI [16] [%],Postemergence herbicidal activity (% control) ALOMY [17] [%],PREEMERGENCE HERBICIDAL ACTIVITY (% CONTROL) STEME [18] [%],Postemergence herbicidal activity (% control) STEME [19] [%],PREEMERGENCE HERBICIDAL ACTIVITY (% CONTROL) ABUTH [20] [%]
COC(C)(C)c1cc2c(Cl)ccc(-n3c(=O)cc(C(F)(F)F)n(C)c3=O)c2o1 [Compound 251],95,100,100,95,90,95,90,90,95,100,90,70,100,100,100,100,100,95,100,100
CCN(CC)Cc1cc2c(Cl)ccc(-n3c(=O)cc(C(F)(F)F)n(C)c3=O)c2o1 [Compound 257],70,100,10,70,0,50,20,70,10,20,40,20,70,60,70,70,30,0,30,90
CNC(=O)OCCc1cc2c(Cl)cc(F)c(-n3c(=O)cc(C(F)(F)F)n(C)c3=O)c2o1 [Compound 261],95,100,100,100,80,100,80,100,95,90,100,80,100,100,100,100,100,100,100,100
